Among the data in US9718790B2, “Triazine derivative and pharmaceutical composition having an analgesic activity comprising the same” (SHIONOGI & CO., LTD., priority 2010, dated 2017) are IC50 values, retold here.

As usually defined, the IC50 is the point on the concentration scale where inhibition reaches its midpoint.

human P2X3 receptor, sequence (P56373 whole entry): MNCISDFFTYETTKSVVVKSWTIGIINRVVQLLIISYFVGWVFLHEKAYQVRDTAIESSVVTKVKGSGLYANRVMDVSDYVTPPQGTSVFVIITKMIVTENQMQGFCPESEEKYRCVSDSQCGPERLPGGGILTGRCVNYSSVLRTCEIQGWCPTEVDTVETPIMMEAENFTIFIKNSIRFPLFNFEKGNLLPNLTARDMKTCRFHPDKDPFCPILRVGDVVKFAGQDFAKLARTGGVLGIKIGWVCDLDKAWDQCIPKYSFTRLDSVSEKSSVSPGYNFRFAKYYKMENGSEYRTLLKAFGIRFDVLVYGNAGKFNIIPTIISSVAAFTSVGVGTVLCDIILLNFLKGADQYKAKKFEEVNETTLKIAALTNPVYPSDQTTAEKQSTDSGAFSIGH

The first assay addresses human P2X3 receptor (Homo sapiens (Human), UniProt P56373). The experiment in a line: Evaluation of human P2X3 receptor inhibitory activity (Fluo-3 calcium fluorescence, FDSS 3000, ATP stimulation).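 Note: stimulus was 50 nM ATP with fluorescence followed for 3 min, and the response per well was peak post-ATP fluorescence divided by the reading at measurement start.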 The settings on record: C6BU-1 cells stably expressing human P2X3 receptor. Format: cell-based.
Turning to `COC(=O)[C@H](C)[C@H](C)n1c(=O)[nH]/c(=N\c2ccc3nc(C)ccc3c2)n(Cc2ccc(C)cc2)c1=O` [Compound I-1324], the half-maximal inhibitory concentration (IC50) worked out at 9 nM. Consider `CC(C)Oc1ccc(/N=c2\[nH]c(=O)n(CC(=O)OC3CCOCC3)c(=O)n2Cc2ccc(Cl)cc2)cc1Cl` [Compound I-0673], for which the IC50 was determined as 8 nM. With `CCCCc1ccc(/N=c2\[nH]c(=O)n(C[C@H](C)C(=O)OC)c(=O)n2Cc2ccc(Cl)cc2)cc1` [Compound I-0620], the IC50 worked out at 44 nM. Turning to `COCCOc1ccc(/N=c2\[nH]c(=O)n(C[C@H](C)C(=O)OC)c(=O)n2Cc2ccc(Cl)cc2)cc1` [Compound I-0745], the IC50 came out at 125 nM. As for `CC(C)c1cccc(/N=c2\[nH]c(=O)n(C[C@H](C)C(=O)O)c(=O)n2Cc2ccc(Cl)cc2)c1` [Compound I-0792], the IC50 was determined as 170 nM. Turning to `Cc1ccc(Cn2c(=O)n(CCCO)c(=O)[nH]/c2=N\c2ccc(O[C@H](C)C(F)(F)F)cc2)cc1` [Compound I-1953], the IC50 was determined as 16 nM.

For the compound `CC(C)Oc1ccc(/N=c2\[nH]c(=O)n(CCC(=O)NC#N)c(=O)n2Cc2ccc(Cl)cc2)cc1F` [Compound I-0758, 1-(4-chlorobenzyl)-6-(3-fluoro-4-isopropoxyphenylimino)-3-[2-(cyanocarbamoyl)ethyl]-1,3,5-triazinane-2,4-dion], the IC50 is 19 nM. As to `COCCOc1ccc(/N=c2\[nH]c(=O)n(C[C@H](C)C(=O)O)c(=O)n2Cc2ccc(Cl)cc2)cc1` [Compound I-0748], the IC50 was found to be 295 nM.

Regarding `CCOC(=O)c1cc(Oc2ccc(/N=c3\[nH]c(=O)n(CC)c(=O)n3Cc3ccc(Cl)cc3)cc2)[nH]n1` [Compound I-2192], the 50% inhibitory concentration (IC50) came out at 8 nM.

On to `CCOC(=O)CCn1c(=O)[nH]/c(=N\c2ccc(OC3CCC3)c(C)c2)n(Cc2ccc(C)cc2)c1=O` [Compound I-1400], for which the half-maximal inhibitory concentration (IC50) was found to be 13 nM. For the compound `CCOC(=O)COc1ccc(/N=c2\[nH]c(=O)n(CC)c(=O)n2Cc2ccc(Cl)cc2)cc1` [Compound I-1989], the IC50 is 619 nM. Same read-out and setting: as for `COCCOc1ccc(/N=c2\[nH]c(=O)n(C[C@H](C)C(=O)OC)c(=O)n2Cc2ccc(Cl)cc2)cc1Cl` [Compound I-0767], the figure is 88 nM; as for `CCCCc1ccc(/N=c2\[nH]c(=O)n(C[C@H](C)C(=O)O)c(=O)n2Cc2ccc(Cl)cc2)cc1` [Compound I-0624], 42 nM; as for `CCOC(=O)CCn1c(=O)[nH]/c(=N\c2ccc(CC(C)C)c(Cl)c2)n(Cc2ccc(C)cc2)c1=O` [Compound I-1426], 50 nM. Turning to `CCCc1ccc(/N=c2\[nH]c(=O)n(C[C@H](C)C(=O)OC)c(=O)n2Cc2ccc(C)cc2)cc1Cl` [Compound I-1277], the IC50 was determined as 15 nM. As to `CNC(=O)CCn1c(=O)[nH]/c(=N\c2ccc(OC(C)C)c(Cl)c2)n(CC2CCC(C)CC2)c1=O` (stereo not shown) [Compound I-2019], the IC50 is 5 nM. On to `CC(C)Oc1ccc(/N=c2\[nH]c(=O)n(C[C@H](C)C(=O)O)c(=O)n2Cc2ccc(F)cc2)cc1F` [Compound I-0637], for which the half-maximal inhibitory concentration (IC50) came out at 69 nM. For `COC(=O)[C@H](C)[C@H](C)n1c(=O)[nH]/c(=N\c2ccc(OC3CCC3)cc2)n(Cc2ccc(Cl)cc2)c1=O` [Compound I-1378], the IC50 came to 12 nM. Same read-out and setting: as for `Cc1ccc(Cn2c(=O)n(C)c(=O)[nH]/c2=N\c2ccc(Oc3ccc(C(=O)O)cc3)cc2)cc1` [Compound I-2061], the figure is 148 nM.

Still in this assay, the particulars now being: C6BU-1 cells stably expressing human P2X3 receptor, Fluo-3 fluorescence, FDSS 3000.
Take `COC(=O)[C@@H](C)Cn1c(=O)[nH]/c(=N\c2ccc(OC(C)C)c(OC)c2)n(Cc2ccc(C)cc2)c1=O` [Compound I-1129]: the IC50 turned out to be 11 nM. Turning to `COC(=O)CCn1c(=O)[nH]/c(=N\c2cc(-c3ccncc3)c[nH]c2=O)n(Cc2ccc(C)cc2)c1=O` [Compound I-1893], the IC50 turned out to be 178 nM.

For `O=c1[nH]/c(=N\c2ccc(Oc3ccnc(O)c3)cc2)n(Cc2ccc(Cl)cc2)c(=O)n1CC(CO)CO` [Compound I-1714], the IC50 is 3 nM. Turning to `O=c1[nH]/c(=N\c2ccc(OCC3CC3)cc2)n(Cc2ccc(Cl)cc2)c(=O)n1C[C@H](O)CO` [Compound I-1855], the IC50 turned out to be 21 nM. As to `CCc1nc2ccc(/N=c3\[nH]c(=O)n(CC(C)(C)C(=O)OC)c(=O)n3Cc3ccc(C)cc3)cc2s1` [Compound I-1573], the IC50 is 4 nM.

Regarding `CC(C)Oc1ccc(/N=c2\[nH]c(=O)n(CC3(CO)COC3)c(=O)n2Cc2ccc(Cl)cc2)cc1Cl` [Compound I-1010], the IC50 amounted to 4 nM. As to `C[C@@H](Oc1ccc(/N=c2\[nH]c(=O)n(CCCO)c(=O)n2Cc2ccc(Cl)cc2)cc1)C(F)(F)F` [Compound I-1620], the half-inhibitory concentration (IC50) came out at 14 nM. As to `CNC(=O)CCn1c(=O)[nH]/c(=N\c2ccc3nc(C)sc3c2)n(Cc2ccc(C)cc2)c1=O` [Compound I-1570], the IC50 is 8 nM.

Regarding `COC(=O)[C@H](C)[C@H](C)n1c(=O)[nH]/c(=N\c2ccc3nc(C)[nH]c3c2)n(Cc2ccc(Cl)cc2)c1=O` [Compound I-1795], the IC50 amounted to 795 nM. Consider `COC(=O)[C@H](C)[C@H](C)n1c(=O)[nH]/c(=N\c2ccc(OC(C)C)c(F)c2)n(Cc2ccc(C)cc2)c1=O` [Compound I-0967], for which the IC50 was 19 nM. For `Cc1ccc(Cn2c(=O)n(C[C@H](C)C(=O)O)c(=O)[nH]/c2=N\c2ccc(OC(F)F)c(Cl)c2)cc1` [Compound I-1032], the IC50 was determined as 33 nM. Turning to `COC(=O)C(C)(C)Cn1c(=O)[nH]/c(=N\c2ccc3nc(C)sc3c2)n(Cc2ccc(Cl)cc2)c1=O` [Compound I-1569], the IC50 was 4 nM. As to `CNC(=O)c1cc(Oc2ccc(/N=c3\[nH]c(=O)[nH]c(=O)n3Cc3ccc(Cl)cc3)cc2)ccn1` [Compound I-1846], the IC50 was 15 nM.

Turning to `Cc1ccc(Cn2c(=O)n(C[C@H](C)CO)c(=O)[nH]/c2=N\c2ccc(CC(C)C)c(Cl)c2)cc1` [Compound I-1579], the 50% inhibitory concentration (IC50) amounted to 7 nM. Take `Cc1ccc(Cn2c(=O)n(CC3(C(=O)O)CC3)c(=O)[nH]/c2=N\c2ccc(OC(C)C)c(C)c2)cc1` [Compound I-0935]: the concentration for half-maximal inhibition (IC50) was 38 nM.

The assay is the same for the next values; noted with them: human P2X3 receptor, Test Example 1.
`Cc1ccc(/N=c2\[nH]c(=O)n(C[C@H](C)C(=O)O)c(=O)n2Cc2ccc(Cl)cc2)cc1C(F)(F)F` [Compound I-0843]: the IC50 stood at 183 nM.

On to `CCCn1c(=O)[nH]/c(=N\c2ccc(Oc3ccc(C#N)nc3)cc2)n(Cc2ccc(Cl)cc2)c1=O` [Compound I-2230], for which the IC50 came out at 2 nM. As to `C[C@@H](CO)n1c(=O)[nH]/c(=N\c2ccc(Oc3ccon3)cc2)n(Cc2ccc(Cl)cc2)c1=O` [Compound I-2489], the IC50 was 50 nM. Turning to `Cn1c(=O)[nH]/c(=N\c2ccc(Oc3ccc(C(=O)O)cn3)cc2)n(Cc2ccc(Cl)cc2)c1=O` [Compound I-2442], the IC50 amounted to 18 nM. Consider `Cc1ccc(Cn2c(=O)n(C)c(=O)[nH]/c2=N\c2ccc(Oc3cccc(C(=O)O)n3)cc2)cc1` [Compound I-2268], for which the IC50 was 6 nM. For the compound `O=C(O)CCn1c(=O)[nH]/c(=N\c2ccc(Oc3cccc(F)n3)cc2)n(Cc2ccc(Cl)cc2)c1=O` [Compound I-2653], the IC50 came out at 9 nM. For the compound `CCn1c(=O)[nH]/c(=N\c2ccc(Oc3ccc(C#N)nn3)cc2)n(Cc2ccc(Cl)cc2)c1=O` [Compound I-2601], the IC50 was 12 nM. As for `CC(=O)NCCn1c(=O)[nH]/c(=N\c2ccc(Oc3ccon3)cc2)n(Cc2ccc(Cl)cc2)c1=O` [Compound I-2524], the concentration for half-maximal inhibition (IC50) turned out to be 34 nM. In the case of `CCn1c(=O)[nH]/c(=N\c2ccc(Oc3cccc(C#N)n3)cc2)n(Cc2ccc(Cl)cc2)c1=O` [Compound I-2302], the concentration for half-maximal inhibition (IC50) came out at 2 nM. Turning to `CCn1c(=O)[nH]/c(=N\c2ccc(Oc3ccc(NC(=O)NC)nc3)cc2)n(Cc2ccc(Cl)cc2)c1=O` [Compound I-2426], the concentration for half-maximal inhibition (IC50) came to 11 nM. As to `O=C(O)CCn1c(=O)[nH]/c(=N\c2ccc(Oc3ccon3)cc2)n(Cc2ccc(Cl)cc2)c1=O` [Compound I-2435], the IC50 came out at 37 nM. The same measure, in the same setting: as for `O=c1[nH]/c(=N\c2ccc(Oc3ncccn3)cc2)n(Cc2ccc(Cl)cc2)c(=O)n1CCCO` [Compound I-2543], the figure is 10 nM. With `CCn1c(=O)[nH]/c(=N\c2ccc(Oc3cncc(C(=O)OC)n3)cc2)n(Cc2ccc(C)cc2)c1=O` [Compound I-2467], the half-maximal inhibitory concentration (IC50) stood at 7 nM.

Turning to `Cc1cnc(Oc2ccc(/N=c3\[nH]c(=O)n(CC(=O)NCCO)c(=O)n3Cc3ccc(Cl)cc3)cc2)s1` [Compound I-2649], the 50% inhibitory concentration (IC50) was determined as 6 nM. Regarding `CCc1nc2ccc(/N=c3\[nH]c(=O)n(CCC(=O)O)c(=O)n3Cc3ccc(Cl)cc3)cc2s1` [Compound I-1509], the IC50 was found to be 14 nM.

Regarding `CCn1c(=O)[nH]/c(=N\c2ccc(Oc3cc(C(=O)O)ccn3)cc2)n(Cc2ccc(C)cc2)c1=O` [Compound I-2303], the concentration for half-maximal inhibition (IC50) amounted to 7 nM. For `CCOC(=O)CN(C(=O)OC(C)(C)C)c1cc(Oc2ccc(/N=c3\[nH]c(=O)n(CC)c(=O)n3Cc3ccc(Cl)cc3)cc2)ccn1` [Compound I-2540], the IC50 is 104 nM.

As to `CCn1c(=O)[nH]/c(=N\c2ccc3nc(OCC(=O)O)sc3c2)n(Cc2ccc(Cl)cc2)c1=O` [Compound I-2326], the IC50 is 108 nM. Consider `CCn1c(=O)[nH]/c(=N\c2ccc(Oc3cc(F)cc(C(N)=O)c3)cc2)n(Cc2ccc(Cl)cc2)c1=O` [Compound I-2233], for which the IC50 is 2 nM. Same read-out and setting: in the case of `CCn1c(=O)[nH]/c(=N\c2ccc(Oc3ccc(C(=O)OC)nn3)cc2)n(C[C@H]2CC[C@H](C)CC2)c1=O` [Compound I-2701] it was 1 nM; in that of `CCn1c(=O)[nH]/c(=N\c2ccc(Oc3cncc(C(=O)O)c3)cc2)n(C[C@H]2CC[C@H](C)CC2)c1=O` [Compound I-2352], 6 nM; in that of `CCn1c(=O)[nH]/c(=N\c2ccc(Oc3cccc(C(=O)NC#N)n3)cc2)n(Cc2ccc(Cl)cc2)c1=O` [Compound I-2593], 1 nM.

`CCOC(=O)CCn1c(=O)[nH]/c(=N\c2ccc(OC(C)C)c(Cl)c2)n(Cc2ccc(C)cc2)c1=O` [Compound I-0866, 6-(3-chloro-4-isopropoxyphenylamino)-3-(2,3-ethoxycarbonylethyl)-1-(4-methylbenzyl)-1,3,5-triazinane-2,4-dion]: the concentration for half-maximal inhibition (IC50) was determined as 2 nM.

With `Cc1ccc(Cn2c(=O)n(CCC(=O)O)c(=O)[nH]/c2=N\c2ccc(Oc3cc(C(=O)O)ccn3)cc2)cc1` [Compound I-2671], the 50% inhibitory concentration (IC50) turned out to be 36 nM.
